In paper PMC3358459 (Journal of Pharmaceutical and Biomedical Analysis, 2012):

What was measured:
Stability of R- = assay type: in vitro ADME, human; conditions: for Remained concentration: human plasma with 20 mM glutathione, added concentration 3.585 μg/mL, n=3, Mean±S.D.
[1] = cited from earlier work

Cc1cc2c(C(C)C)c(O)c(O)c(C=O)c2c(O)c1-c1c(C)cc2c(C(C)C)c(O)c(O)c(C=O)c2c1O [R-(-)-gossypol]
Effect of antioxidants on stability in plasma (Stability of R-; 5 μg/mL in plasma with 20 mM reduced glutathione and 1% ascorbic acid, 4°C): can improve the stability
Remained concentration (Stability of R-; -80°C, 1 month): 111.8±5.6%
Remained concentration (Stability of R-; on ice, 4hr): 103.8±6.1%
Remained concentration (Stability of R-; three freeze-thaw cycles): 86.9±1.1%
Degraded in plasma (Stability of R-; plasma, room temperature, over 24hr, compared to freshly prepared samples): more than 60%
Stability in mobile phase (acetonitrile/water (80:20), 24hr at 4°C): good stability

Cc1cc2c(C(C)C)c(O)c(O)c(C=O)c2c(O)c1-c1c(C)cc2c(C(C)C)c(O)c(O)c(C=O)c2c1O [gossypol]
Stability of quality control plasma samples (Stability of R-; plasma with 20 mM glutathione, -70°C for 1 month): stable
Freeze-thaw stability (Stability of R-; plasma with 20 mM glutathione, after 3 cycles, lower concentration): significant degradation
Stability of quality control plasma samples (Stability of R-; plasma with 20 mM glutathione, on ice for 4 hr): stable
Stability in acetonitrile ([1]; acetonitrile): stable
Stability in methanol ([1]; methanol, even at 5°C): decompose
Stability in solvents ([1]; water, methanol, ethanol and alcoholic solvents): unstable

R-(-)-gossypol acetic acid
Time stock solution was stable (1mg/mL in acetonitrile, -70°C): 3 months
